Data on 20 compounds can be found in patent US20240317758A1 (Halia Therapeutics, Inc., priority 2021, published 2024).

Each structure is given as a SMILES string.

The assay deals with T1, full-length recombinant human NEK7 (Homo sapiens, UniProt Q8TDX7).
T1 construct: full-length recombinant human NEK7; GST (N); purchased SignalChem NO9-10G; host or cells: Sf9 insect cells (baculovirus)
The experiment in a line: NEK7 enzymatic assay. It counts as biochemical. Particulars: recombinant human NEK7, casein substrate, radiolabelled ATP. The procedure: Casein substrate (from bovine milk, hydrolyzed and partially dephosphorylated mixture of α, β and κ caseins, obtained from Sigma Aldrich, catalogue #C4765, diluted in distilled water to a final concentration of 1 mg/mL) and full-length recombinant human NEK7 (expressed by baculovirus in Sf9 insect cells using a N-terminal GST tag, obtained from SignalChem, catalogue #NO9-10G, 0.1 μg/μL) were mixed in assay buffer (20 mM Hepes pH 7.5, 10 mM MgCl2, 1 mM EGTA, 0.02% Brij35, 0.02 mg/ml BSA, 0.1 mM Na3VO4, 2 mM DTT, 1% DMSO). Compounds of interest (serial 3-fold dilution in DMSO from 10 μM to 0.5 nM) or vehicle (1% DMSO) were dispensed into the kinase reaction mixture by Acoustic technology (Echo550; nanoliter range). After incubation at room temperature for 20 minutes, the kinase reaction was initiated by addition of [^33P]-ATP (specific activity 10 μCi/μl) and the mixture was incubated at room temperature for 2 hours. The reaction was then stopped by spotting the reaction mixture on strips of phosphocellulose P81 paper. Following washing, the radioactivity of the P81 paper was measured and kinase activity data were expressed as the percent remaining kinase activity in test samples compared to vehicle reactions. IC50 values and curve fits were obtained using Prism (GraphPad Software).
Casein substrate (from bovine milk, hydrolyzed and partially dephosphorylated mixture of α, β and κ caseins, obtained from Sigma Aldrich, catalogue #C4765, diluted in distilled water to a final concentration of 1 mg/mL, assay concentration 20 μM) and full-length recombinant human Nek7 (expressed by baculovirus in Sf9 insect cells using a N-terminal GST tag, obtained from SignalChem, catalogue #NO9-10G, 0.1 μg/μL, assay concentration 70 nM) were mixed in assay buffer (20 mM Hepes pH 7.5, 10 mM MgCl2, 1 mM EGTA, 0.02% Brij35, 0.02 mg/ml BSA, 0.1 mM […], 2 mM DTT, 1% DMSO). Compounds of interest (in DMSO, serial 3-fold dilution from 10 μM to 0.5 nM) or control (1% DMSO) were dispensed into the kinase reaction mixture by Acoustic technology (Echo550; nanoliter range). After incubation at room temperature for 20 minutes, the kinase reaction was initiated by addition of [^32P]-ATP (Specific activity 10 μCi/μl) and the mixture was incubated at room temperature for 2 hours. The reaction was then stopped by spotting the reaction mixture on strips of phosphocellulose P81 paper. Following washing, the radioactivity of the P81 paper was measured and kinase activity data were expressed as the percent remaining kinase activity in test samples compared to vehicle (dimethyl sulfoxide) reactions. IC50 values and curve fits were obtained using Prism (GraphPad Software).

T1 sequence (Q8TDX7 whole entry): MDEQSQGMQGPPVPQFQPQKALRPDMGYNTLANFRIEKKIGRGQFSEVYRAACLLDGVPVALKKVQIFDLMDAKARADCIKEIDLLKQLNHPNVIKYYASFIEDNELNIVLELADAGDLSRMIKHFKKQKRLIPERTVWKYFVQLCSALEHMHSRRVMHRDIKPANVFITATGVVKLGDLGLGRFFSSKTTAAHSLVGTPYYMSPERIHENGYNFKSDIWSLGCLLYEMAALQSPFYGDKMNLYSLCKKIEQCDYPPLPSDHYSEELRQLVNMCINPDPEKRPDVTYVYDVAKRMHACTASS

As for `CN1CC2(C1)CN(Cc1ccc(NC(=O)Nc3ccc(-c4cn(C5CC5)c5ncnc(N)c45)cc3F)cc1C(F)(F)F)C2` [Example I-7, 1-(4-(4-amino-7-cyclopropyl-7H-pyrrolo[2,3-d]pyrimidin-5-yl)-2-fluorophenyl)-3-(4-((6-methyl-2,6-diazaspiro[3.3]heptan-2-yl)methyl)-3-(trifluoromethyl)phenyl)urea], the IC50 was over 2000 nM. The value for `CN1CC2CCC(C1)N2Cc1ccc(NC(=O)Nc2ccc(-c3cn(C4CC4)c4ncnc(N)c34)cc2F)cc1C(F)(F)F` [Example I-4, 1-(4-(4-amino-7-cyclopropyl-7H-pyrrolo[2,3-d]pyrimidin-5-yl)-2-fluorophenyl)-3-(4-((3-methyl-3,8-diazabicyclo[3.2.1]octan-8-yl)methyl)-3-(trifluoromethyl)phenyl)urea] was 100 to 500 nM. The value for `Nc1ncnc2c1c(-c1ccc(NC(=O)Nc3ccc(CN4CCCCC4)c(C(F)(F)F)c3)c(F)c1)cn2C1CC1` [Example I-95, 1-(4-(4-amino-7-cyclopropyl-7H-pyrrolo[2,3-d]pyrimidin-5-yl)-2-fluorophenyl)-3-(4-(piperidin-1-ylmethyl)-3-(trifluoromethyl)phenyl)urea] was 500 to 2000 nM; that for `CN1CCN(Cc2ccc(NC(=O)Nc3ccc(-c4cn(C5CC5)c5ncnc(N)c45)cc3F)cc2C(F)(F)F)CC12CC2` [Example I-73, 1-(4-(4-amino-7-cyclopropyl-7H-pyrrolo[2,3-d]pyrimidin-5-yl)-2-fluorophenyl)-3-(4-((4-methyl-4,7-diazaspiro[2.5]octan-7-yl)methyl)-3-(trifluoromethyl)phenyl)urea] was 500 to 2000 nM. The figure for `CN1CC2CCC1CN2Cc1ccc(NC(=O)Nc2ccc(-c3cn(C4CC4)c4ncnc(N)c34)cc2F)cc1C(F)(F)F` (centres unmarked) [Example I-9, 1-(4-(4-amino-7-cyclopropyl-7H-pyrrolo[2,3-d]pyrimidin-5-yl)-2-fluorophenyl)-3-(4-((5-methyl-2,5-diazabicyclo[2.2.2]octan-2-yl)methyl)-3-(trifluoromethyl)phenyl)urea] is 100 to 500 nM; for `CC(C)n1cc(-c2ccc(NC(=O)Nc3ccc(CN4CCN(C)CC4)c(C(F)(F)F)c3)c(F)c2)c2c(N)ncnc21` [Example I-105, 1-(4-(4-amino-7-isopropyl-7H-pyrrolo[2,3-d]pyrimidin-5-yl)-2-fluorophenyl)-3-(4-((4-methylpiperazin-1-yl)methyl)-3-(trifluoromethyl)phenyl)urea] it is under 100 nM. As to `Cc1cc(NC(=O)Nc2ccc(-c3cn(C4CC4)c4ncnc(N)c34)cc2F)ccc1CN1CCN(C)CC1` [Example I-39, 1-(4-(4-amino-7-cyclopropyl-7H-pyrrolo[2,3-d]pyrimidin-5-yl)-2-fluorophenyl)-3-(3-methyl-4-((4-methylpiperazin-1-yl)methyl)phenyl)urea], the IC50 was over 2000 nM. The figure for `CN1CCN(Cc2c(F)cc(NC(=O)Nc3ccc(-c4cn(C5CC5)c5ncnc(N)c45)cc3F)cc2C(F)(F)F)CC1` [Example I-12, 1-(4-(4-amino-7-cyclopropyl-7H-pyrrolo[2,3-d]pyrimidin-5-yl)-2-fluorophenyl)-3-(3-fluoro-4-((4-methylpiperazin-1-yl)methyl)-5-(trifluoromethyl)phenyl)urea] is under 100 nM. The figure for `Nc1ncnc2c1c(-c1ccc(NC(=O)Nc3ccc(CN4CCC(F)(F)CC4)c(C(F)(F)F)c3)c(F)c1)cn2C1CC1` [Example I-85, 1-(4-(4-amino-7-cyclopropyl-7H-pyrrolo[2,3-d]pyrimidin-5-yl)-2-fluorophenyl)-3-(4-((4,4-difluoropiperidin-1-yl)methyl)-3-(trifluoromethyl)phenyl)urea] is over 2000 nM; for `CN1CCN(Cc2ccc(NC(=O)Nc3ccc(-c4cn(CCO)c5ncnc(N)c45)cc3F)cc2C(F)(F)F)CC1` [Example I-71, 1-(4-(4-amino-7-(2-hydroxyethyl)-7H-pyrrolo[2,3-d]pyrimidin-5-yl)-2-fluorophenyl)-3-(4-((4-methylpiperazin-1-yl)methyl)-3-(trifluoromethyl)phenyl)urea] it is under 100 nM. With `CN1C[C@@H]2CN(Cc3ccc(NC(=O)Nc4ccc(-c5cn(C6CC6)c6ncnc(N)c56)cc4F)cc3C(F)(F)F)C[C@@H]2C1` [Example I-5, 1-(4-(4-amino-7-cyclopropyl-7H-pyrrolo[2,3-d]pyrimidin-5-yl)-2-fluorophenyl)-3-(4-(((3aR,6aS)-5-methylhexahydropyrrolo[3,4-c]pyrrol-2(1H)-yl)methyl)-3-(trifluoromethyl)phenyl)urea], the IC50 lay in the range of 100 to 500 nM. Take `CN1CCN(Cc2ccc(NC(=O)Nc3ncc(-c4cn(C5CC5)c5ncnc(N)c45)cc3F)cc2C(F)(F)F)CC1` [Example I-67, 1-(5-(4-amino-7-cyclopropyl-7H-pyrrolo[2,3-d]pyrimidin-5-yl)-3-fluoropyridin-2-yl)-3-(4-((4-methylpiperazin-1-yl)methyl)-3-(trifluoromethyl)phenyl)urea]: the IC50 was 100 to 500 nM.

In the case of `CN1CCN(Cc2ccc(NC(=O)Nc3ccc(-c4cn(C5CCC5)c5ncnc(N)c45)cc3F)cc2C(F)(F)F)CC1` [Example I-19, 1-(4-(4-amino-7-cyclobutyl-7H-pyrrolo[2,3-d]pyrimidin-5-yl)-2-fluorophenyl)-3-(4-((4-methylpiperazin-1-yl)methyl)-3-(trifluoromethyl)phenyl)urea], the IC50 was 100 to 500 nM. The figure for `CN1CCN(Cc2ccc(NC(=O)Nc3ccc(-c4cn(C5CC5)c5ncnc(N)c45)cc3Cl)cc2C(F)(F)F)CC1` [Example I-35, 1-(4-(4-amino-7-cyclopropyl-7H-pyrrolo[2,3-d]pyrimidin-5-yl)-2-chlorophenyl)-3-(4-((4-methylpiperazin-1-yl)methyl)-3-(trifluoromethyl)phenyl)urea] is 100 to 500 nM; for `CN1CCN(Cc2ccc(NC(=O)Nc3ccc(-c4cn(C5CC5)c5ncnc(N)c45)cn3)cc2C(F)(F)F)CC1` [Example I-14, 1-(5-(4-amino-7-cyclopropyl-7H-pyrrolo[2,3-d]pyrimidin-5-yl)pyridin-2-yl)-3-(4-((4-methylpiperazin-1-yl)methyl)-3-(trifluoromethyl)phenyl)urea] it is under 100 nM. As for `CN1CCC(Oc2ccc(NC(=O)Nc3ccc(-c4cn(C5CC5)c5ncnc(N)c45)cc3F)cc2C(F)(F)F)C(F)C1` (single isomer, unassigned) [Example I-89, 1-(4-(4-amino-7-cyclopropyl-7H-pyrrolo[2,3-d]pyrimidin-5-yl)-2-fluorophenyl)-3-(4-((3-fluoro-1-methylpiperidin-4-yl)oxy)-3-(trifluoromethyl)phenyl)urea], the IC50 is 100 to 500 nM. The figure for `CN1CCN(Cc2ccc(NC(=O)Nc3ccc(-c4nn(C5CC5)c5ncnc(N)c45)cn3)cc2C(F)(F)F)CC1` [Example I-30, 1-(5-(4-amino-1-cyclopropyl-1H-pyrazolo[3,4-d]pyrimidin-3-yl)pyridin-2-yl)-3-(4-((4-methylpiperazin-1-yl)methyl)-3-(trifluoromethyl)phenyl)urea] is 100 to 500 nM. The figure for `CN1CC2CC1CN2Cc1ccc(NC(=O)Nc2ccc(-c3cn(C4CC4)c4ncnc(N)c34)cc2F)cc1C(F)(F)F` (centres unmarked) [Example I-64, 1-(4-(4-amino-7-cyclopropyl-7H-pyrrolo[2,3-d]pyrimidin-5-yl)-2-fluorophenyl)-3-(4-((5-methyl-2,5-diazabicyclo[2.2.1]heptan-2-yl)methyl)-3-(trifluoromethyl)phenyl)urea] is under 100 nM; for `CN1CCN(Cc2ccc(NC(=O)Nc3ccc(-c4cn(CCC(=O)O)c5ncnc(N)c45)cc3F)cc2C(F)(F)F)CC1` [Example I-106, 3-(4-amino-5-(3-fluoro-4-(3-(4-((4-methylpiperazin-1-yl)methyl)-3-(trifluoromethyl)phenyl)ureido)phenyl)-7H-pyrrolo[2,3-d]pyrimidin-7-yl)propanoic acid] it is under 100 nM. The value for `Nc1ncnc2c1c(-c1ccc(NC(=O)Nc3ccc(OC4CCN(C5COC5)CC4F)c(C(F)(F)F)c3)c(F)c1)cn2C1CC1` (single isomer, unassigned) [Example I-92, 1-(4-(4-amino-7-cyclopropyl-7H-pyrrolo[2,3-d]pyrimidin-5-yl)-2-fluorophenyl)-3-(4-((3-fluoro-1-(oxetan-3-yl)piperidin-4-yl)oxy)-3-(trifluoromethyl)phenyl)urea] was 100 to 500 nM.

One may read the IC50 as the concentration that inhibits the measured activity by half.
